The record followed here is US12139729B2, “Neurodegenerative disorders” (priority 2013, dated 2024).

Series [1] in a line: Sulforhodamine B (SRB) cell viability assay. Type of series: cell-based. The conditions noted are these: 1 hour. The method, then: Wild-type PC12 cell were provided by Sigma-Aldrich (St. Louis, MO). The culture was routinely plated in 100 mm dishes (Corning) coated with collagen (2 μg/cm^2) and maintained in growth medium with Minimum Essential Medium Eagle (MEM) supplemented with heat-inactivated 10% horse serum (HS) and 5% foetal bovine serum (FBS), 10 mM HEPES, 2 mM L-Glutamine and 1:400 Penicillin/streptomycin solution. Cells were maintained at 37° C. in a humidified atmosphere 5% CO2 and the medium was replaced every 2 days. For splitting, cells were dislodged from the dish using a pipette with medium, with a portion of these replated onto new cultured dishes. Cells were used between passages 12 and 25.
The cell viability assay used was the sulforhodamine B (SRB) colorimetric assay for toxicity screening. The day before of the experiment cells were seeded onto collagen-coated 96-well plates in a concentration of 40,000 cells/well. Cell concentration was determined by the Fuchs-Rosenthal chamber. […] After treatment, medium was replaced and cells were fixed by adding 100 μl of 10% Trichloroacetic Acid (TCA) for 1 h at 4° C. Thereafter, cells were washed with H2O and stained with 100 μl of a 0.057% SRB solution in 1% Acetic acid (HAc) for 30 minutes at room temperature. After staining cells were washed with 1% HAc for removing the excess of SRB and then incubated with 200 μl of 10 mM Tris base (pH 10.5) and shake it for 5 minutes to solubilise the protein-bound dye. Measurement of the absorbance took place in a VMax Kinetic Microplate Reader (Molecular Devices) at 490 nm.

Series [2] in a line: Cell Counting Kit-8 (CCK-8) cell viability assay. Type of series: cell-based. The text has this: A Cell Counting Kit-8 (CCK-8) was used as an improvement of the SRB technique used before. By utilizing the highly water-soluble tetrazolium salt WST-8, CCK-8 produces a water-soluble formazan dye upon reduction in the presence of an electron carrier. WST-8 is reduced by dehydrogenases in cells to give a yellow colored product (formazan), which is soluble in the tissue culture medium. The amount of the formazan dye generated by the activity of dehydrogenases in cells is directly proportional to the number of living cells. PC12 cells are plated in 200 μl of complete growth medium the day before the experiment in 96 well plates. Treatments with T30 and NBP-14 are added and incubated for 1 hour in the incubator.
Subsequently, 100 μl of growth medium is removed and 10 μl of CCK-8 (Cell Counting Kit-8) solution is added. The plate is incubated for 2 hours in the incubator and then placed in the absorbance plate reader. The absorbance must be measured at 450 nm.

Series [3] concerns cortical networks in rat brain slices. Description: Voltage-sensitive dye imaging (VSDI) of thalamocortical brain slices. In kind it is cell-based, rat (Wistar). The conditions noted are these: for T30-induced increase of rise-phase slope (velocity of propagation): n=3. The text has this: Using this technique the inventors can obtain comprehensive sets of data on neuronal population activity such as (a) the intensity of the response in any given area, from which (b) the spread of elicited neuronal assemblies can be measured, and from this parameter (c) the velocity of propagation of the activity wave-front from the point of initiation (d) measured as the slope of the spread. Each of these parameters have been measured independently for two experiments carried out so far: i) an investigation of the effects induced by increasing concentrations (0.5, 0.75, 1 & 5 μM) of T30 on cortical population activity and responsiveness, and 2) assessing the antagonistic effects of NBP-14 on a single, relatively high (1 uM), T30 concentration. • Technique used: voltage-sensitive dye imaging (Di-4-ANEPPS) of thalamocortical (TC) p14 rat (Wistar) brain slices. • Stimulation paradigm: 40 Hz (consistent with thalamo-cortical recurrent stimulation) paired pulse stimulation. • Perfusion paradigm: epochs carried out in two phases—for every drug perfusion (say: control, 0.1 uM T30 etc.), the new perfusion was applied and left to perfuse for 15 minutes before starting the recording period (15 minutes also), such that the drug had time to reach its actual concentration and induce its concentration-dependent effects once recording. Meaning one perfusion epoch lasted 30 minutes, with the recording only taking in account the last 15 minutes of its respective perfusion epoch. Detailed Methods Brain Slice Preparation
Male Wistar rats (14-17 day old; 15 individual animals in total) were anaesthetised using isoflurane: 10 mL 100% w/w isoflurane was applied to the cotton bed at the bottom of an anaesthesia chamber (glass box 20×15×15 cm) where rats were then placed for ˜45 seconds until onset of anaesthesia. The hind paw of each anaesthetised rat was pinched to check for appropriate depth of anaesthesia. Once anaesthesia was confirmed, rats were quickly decapitated before immersing the brain in oxygenated ice-cold artificial cerebrospinal fluid (‘slicing’ aCSF in mmol: 120 NaCl, 5 KCl, 20 NaHCO3, 2.4 CaCl2), 2 MgSO4, 1.2 KH2PO4, 10 glucose, 6.7 HEPES salt and 3.3 HEPES acid; pH: 7.1) for 7-8 minutes, the time taken to cut the brain into slices. Para-saggital sections (400 μm thick) were cut from a block of brain containing both Thalamus (VPN) and primary somato-sensory cortex (barrel field) using a Vibratome (Leica VT1000S) and transferred to a bubbler pot containing aCSF at room temperature (‘recording’ aCSF in mmol: 124 NaCl, 3.7 KCl, 26 NaHCO3, 2 CaCl2, 1.3 MgSO4, 1.3 KH2PO4 and 10 glucose; […]), which was identical to that which was used during electrophysiological recordings and VSDI. Slices were left in oxygenated (95% O2-5% CO2) ‘recording’ aCSF to recuperate for at least 1 hour before VSD staining.
Slices were placed in a dark, high humidity chamber filled with aCSF bubbling with 95% O2-5% CO2. The dye solution (4% 0.2 mM styryl dye pyridinium 4-[2-[6-(dibutylamino)-2-naphthalenyl]-ethenyl]-1-(3-sulfopropyl)hydroxide (Di-4-ANEPPS, Invitrogen, Paisley, UK) (Tominaga et al., 2000) in aCSF 46%, fetal bovine serum 46%, DMSO 3.5% and cremophore EL 0.4%) was then applied to the slices as previously described (Badin et al., 2013). When starting VSD recordings, slices were placed in the recording bath on a small piece of filter paper to keep slice alive and was weighed down appropriately using a home-made plastic grid placed atop the slice. Because of the fluorescent VSD, all of the handling of slices during and after staining with Di-4-ANEPPS was carried out in almost complete darkness in order to keep the detrimental effects of photo-toxicity and bleaching to a minimum. VPN (where stimulating electrodes were placed) was identified with respect to distance from the tip of the hippocampus and to the side of the internal capsule. […]

Like-named read-outs stand apart in the source and are kept apart here. Residues, ends and D or L forms follow the SMILES beside them. No end group written: not given here.

Consider `CSCC[C@@H]1NC(=O)[C@H](Cc2ccc(O)cc2)NC(=O)[C@H](CO)NC(=O)[C@H](CO)NC(=O)[C@H](Cc2c[nH]c3ccccc23)NC(=O)[C@H](CCCNC(=N)N)NC(=O)[C@H](Cc2c[nH]cn2)NC(=O)[C@H](Cc2ccccc2)NC(=O)[C@H](CCC(=O)O)NC(=O)[C@H](C)NC(=O)[C@H](CCCCN)NC(=O)[C@H](Cc2c[nH]c3ccccc23)NC(=O)[C@H](Cc2c[nH]cn2)NC(=O)[C@H](C(C)C)NC1=O` [Cyclic T14] (cyclo(AEFHRWSSYMVHWK)), for which the viability in series [1] (T30 10 μM + Cyclic T14 100 nM, read-out: cell viability, T30 combined with Cyclic T14) came out at 88.6 ± 8.79%; in series [1] (cell viability, β-amyloid combined with Cyclic T14, β-Amyloid 10 μM + Cyclic T14 100 nM), 94.5 ± 7.4%; in series [1] (cell viability, β-amyloid combined with Cyclic T14, β-Amyloid (10 μM) + Cyclic T14 0.5 nM), 88.5 ± 10%; in series [1] (cell viability, β-amyloid combined with Cyclic T14, β-Amyloid (10 μM) + Cyclic T14 1 nM) it was 97.3 ± 9.57%; in series [1] (cell viability, β-amyloid combined with Cyclic T14, β-Amyloid (10 μM) + Cyclic T14 10 nM), 102 ± 8.53%; in series [1] (cell viability, β-amyloid combined with Cyclic T14, β-Amyloid (10 μM) + Cyclic T14 50 nM), 102 ± 14%. In addition, the viability in series [2] (T30 5 uM + NBP-14 5 nM (1st of 10 values), read-out: cell viability, T30 + NBP-14) was 76.2 ± 7.51%; in series [2] (T30 5 uM + NBP-14 7 nM (2nd of 10 values), read-out: cell viability, T30 + NBP-14) it was 67 ± 4.35%; in series [2] (T30 5 uM + NBP-14 9 nM (3rd of 10 values), read-out: cell viability, T30 + NBP-14) it was 76 ± 4.22%; in series [2] (T30 5 uM + NBP-14 10 nM (4th of 10 values), read-out: cell viability, T30 + NBP-14) it was 71.4 ± 1.64%; in series [2] (T30 5 uM + NBP-14 20 nM (5th of 10 values), read-out: cell viability, T30 + NBP-14), 79 ± 10.2%; in series [2] (T30 5 uM + NBP-14 50 nM (6th of 10 values), read-out: cell viability, T30 + NBP-14), 75.2 ± 3.9%. In addition, the viability in series [2] (T30 5 uM + NBP-14 70 nM (7th of 10 values), read-out: cell viability, T30 + NBP-14) turned out to be 62.4 ± 3.01%; in series [2] (T30 5 uM + NBP-14, 8th of 10 values, concentration unclear, read-out: cell viability, T30 + NBP-14), 78.1 ± 2.16%; in series [2] (T30 5 uM + NBP-14, 9th of 10 values, concentration unclear, read-out: cell viability, T30 + NBP-14), 117 ± 3.62%; in series [2] (T30 5 uM + NBP-14, 10th of 10 values, concentration unclear, read-out: cell viability, T30 + NBP-14), 108 ± 5.1%. The viability at 10 µM in series [1] (cell viability, β-amyloid combined with Cyclic T14, β-Amyloid (10 μM) + Cyclic T14 'moo' (nM)) was determined as 104 ± 6.34%. Also, in series [1] (rat, PC12 cells (wild-type), Cyclic T14 alone 100 nM, PC12), the viability at 1 h, 0.1 µM turned out to be 98.8 ± 15.2%. Also, in series [1] (rat, PC12 cells (wild-type), Cyclic T14 alone 700 nM, PC12), the viability at 1 h, 0.7 µM was determined as 107 ± 19.9%. Further, in series [1] (rat, PC12 cells (wild-type), Cyclic T14 alone 1 μM, PC12), the viability at 1 h, 1 µM is 105 ± 10.9%. Besides, the viability at 1 h, 100 µM in series [1] (rat, PC12 cells (wild-type), Cyclic T14 alone 100 μM, PC12) came out at 93.6 ± 11.6%. Further, in series [3], the “modulatory effects of NBP-14 on its own” value is given as “inert”. The “modulatory effects of T30 on neuronal populations under NBP-14” value in series [3] (300 nM NBP-14, T30 1000 nM) is recorded as “reduced back to control levels”. For the same compound, the “T30-induced increase of rise-phase slope (velocity of propagation)” value in series [3] (T30 1 μM + 100 nM NBP-14 perfusion) was “slowed down”; in series [3] (T30 1 μM + 300 nM NBP-14 perfusion), “reversed back to baseline levels”.
Take “KAEFHRWSSYMVHWKNQFDHYSKQDRCSDL [T30, reference compound]”: in series [1] (10 μM, PC12, read-out: cell viability, peptide alone), the viability at 10 µM is 68.4 ± 3.1%. The viability in series [2] (T30 5 uM alone, 1 hour, N=3, read-out: cell viability) came to 74.3%. Also, in series [2] (T30 5 uM, read-out: decrease of cell viability), the cytotoxicity turned out to be 25%. Besides, in series [3] (5 μM T30), the “maximum decrease in propagation speed (slope of the rise phase)” value was 3.5 fold. For the same compound, the “spread of cortical assemblies” value in series [3] (T30 0.5, 0.75, 1 μM, affected only at 5 uM) was “not significantly affected”. Besides, in series [3] (increasing T30 concentration (0.5-5 μM)), the “intensity of fluorescence given off by active pixels” value is “diminishes”.
